# What was measured:
# Zymoseptoria tritici = assay: Leaf blotch of wheat (SEPTTR) disease control on wheat seedlings; format: in vivo; design: key to SEPTTR 1DP, HV activity at 100 ppm (% control rating) / SEPTTR 3DC, HV activity at 100 ppm (% control rating) / SEPTTR disease control, 1DP / SEPTTR disease control, 3DC / SEPTTR 1DP disease control rating, HV activity / SEPTTR 3DC disease control rating, HV activity / SEPTTR 3DC, LV activity at 125.1 g/H (% Control rating) / SEPTTR 1DP, LV activity at 125.1 g/H (% Control rating) / SEPTTR 1DP disease control rating, LV activity at 125.1 g/H / SEPTTR 3DC disease control rating, LV activity at 125.1 g/H / SEPTTR 3DC disease control rating, HV activity at 100 ppm / SEPTTR 1DP disease control rating, HV activity at 100 ppm / HV activity at 100 ppm SEPTTR 3DC (disease control rating) / HV activity at 100 ppm SEPTTR 1DP (disease control rating) / LV activity at 125.1 g/H SEPTTR 1DP (disease control rating) / LV activity at 125.1 g/H SEPTTR 3DC (disease control rating): A: > 80; B: ≤ 80; C: Not Tested; D: No Activity Observed in the Reported Assay; details: for SEPTTR 1DP disease control rating, HV activity at 100 ppm / SEPTTR 3DC disease control rating, HV activity at 100 ppm: high volume application; for HV activity at 100 ppm SEPTTR 1DP (disease control rating) / HV activity at 100 ppm SEPTTR 3DC (disease control rating): HV application
# Puccinia triticina = assay: Wheat brown rust (PUCCRT) disease control on wheat seedlings; format: in vivo; details: for PUCCRT 1DP disease control rating, HV activity at 100 ppm / PUCCRT 3DC disease control rating, HV activity at 100 ppm: high volume application; for HV activity at 100 ppm PUCCRT 1DP (disease control rating) / HV activity at 100 ppm PUCCRT 3DC (disease control rating): HV application
# [1] = low volume application, 125.1 g/H, 1 Day Protectant
# [2] = low volume application, 125.1 g/H, 3 Day Curative
# [3] = 1 Day Protectant, wheat leaf blotch
# [4] = 3 Day Curative, wheat leaf blotch
# [5] = 1 Day Protectant, wheat brown rust
# [6] = 3 Day Curative, wheat brown rust
# [7] = low volume application, 125.1 g/H, 1 day protectant
# [8] = low volume application, 125.1 g/H, 3 day curative
structure (smiles),measurement,setting,value
CC(NC(=O)c1nccc(Br)c1O)C(=O)OC(C)C(Oc1ccccc1)C(C)C (stereo not drawn) [Cmpd 1025],"SEPTTR 1DP disease control rating, HV activity at 100 ppm",Zymoseptoria tritici; 1 day protectant,D
same,"SEPTTR 3DC disease control rating, HV activity at 100 ppm",Zymoseptoria tritici; 3 day curative,B (≤ 80)
same,"PUCCRT 1DP disease control rating, HV activity at 100 ppm",Puccinia triticina; 1 day protectant,A (> 80)
same,"PUCCRT 3DC disease control rating, HV activity at 100 ppm",Puccinia triticina; 3 day curative,B (≤ 80)
COc1ccnc(C(=O)NC(C)C(=O)OC(C)C(Oc2ccc(F)cc2)c2ccccc2)c1O (stereo not drawn) [Cmpd 837],"SEPTTR 1DP disease control rating, HV activity at 100 ppm",Zymoseptoria tritici; 1 day protectant,A (> 80)
same,"SEPTTR 3DC disease control rating, HV activity at 100 ppm",Zymoseptoria tritici; 3 day curative,A (> 80)
same,"PUCCRT 1DP disease control rating, HV activity at 100 ppm",Puccinia triticina; 1 day protectant,A (> 80)
same,"PUCCRT 3DC disease control rating, HV activity at 100 ppm",Puccinia triticina; 3 day curative,A (> 80)
CCC[C@@H](Oc1cccc(OC)c1)[C@H](C)OC(=O)[C@H](C)NC(=O)c1nccc(OC)c1O [Cmpd 1013],"SEPTTR 1DP disease control rating, HV activity at 100 ppm",Zymoseptoria tritici; 1 day protectant,B (≤ 80)
same,"SEPTTR 3DC disease control rating, HV activity at 100 ppm",Zymoseptoria tritici; 3 day curative,B (≤ 80)
same,"PUCCRT 1DP disease control rating, HV activity at 100 ppm",Puccinia triticina; 1 day protectant,A (> 80)
same,"PUCCRT 3DC disease control rating, HV activity at 100 ppm",Puccinia triticina; 3 day curative,A (> 80)
C=CC[C@@H](Oc1cc(F)cc(Cl)c1)[C@H](C)OC(=O)[C@H](C)NC(=O)c1nccc(OC)c1OCOC(C)=O [Cmpd 1078],LV activity at 125.1 g/H SEPTTR 1DP (disease control rating),"Zymoseptoria tritici; low volume application, 125.1 g/H, 1 Day Protectant, wheat leaf blotch",B (≤ 80)
same,LV activity at 125.1 g/H SEPTTR 3DC (disease control rating),"Zymoseptoria tritici; low volume application, 125.1 g/H, 3 Day Curative, wheat leaf blotch",B (≤ 80)
same,LV activity at 125.1 g/H PUCCRT 1DP (disease control rating),"Puccinia triticina; low volume application, 125.1 g/H, 1 Day Protectant, wheat brown rust",A (> 80)
same,LV activity at 125.1 g/H PUCCRT 3DC (disease control rating),"Puccinia triticina; low volume application, 125.1 g/H, 3 Day Curative, wheat brown rust",A (> 80)
CC[C@H](C)[C@H](NC(=O)c1nccc(OC)c1OCOC(C)=O)C(=O)O[C@@H](C)[C@H](Oc1cc(F)ccc1F)C(C)C [Cmpd 619],"SEPTTR 1DP, LV activity at 125.1 g/H (% Control rating)",Zymoseptoria tritici; [1],D
same,"SEPTTR 3DC, LV activity at 125.1 g/H (% Control rating)",Zymoseptoria tritici; [2],D
same,"PUCCRT 1DP, LV activity at 125.1 g/H (% Control rating)",Puccinia triticina; [1],A (> 80)
same,"PUCCRT 3DC, LV activity at 125.1 g/H (% Control rating)",Puccinia triticina; [2],A (> 80)
COc1ccnc(C(=O)NCC(=O)O[C@@H](C)[C@H](Oc2ccccc2)C(C)C)c1O [Cmpd 809],"SEPTTR 1DP disease control rating, HV activity at 100 ppm",Zymoseptoria tritici; 1 day protectant,D
same,"SEPTTR 3DC disease control rating, HV activity at 100 ppm",Zymoseptoria tritici; 3 day curative,D
same,"PUCCRT 1DP disease control rating, HV activity at 100 ppm",Puccinia triticina; 1 day protectant,A (> 80)
same,"PUCCRT 3DC disease control rating, HV activity at 100 ppm",Puccinia triticina; 3 day curative,A (> 80)
COc1ccnc(C(=O)N[C@@H](C)C(=O)O[C@@H](C)[C@@H](CC(C)C)Oc2cc(F)ccc2F)c1O [Cmpd 1049],HV activity at 100 ppm SEPTTR 1DP (disease control rating),Zymoseptoria tritici; [3],A (> 80)
same,HV activity at 100 ppm SEPTTR 3DC (disease control rating),Zymoseptoria tritici; [4],B (≤ 80)
same,HV activity at 100 ppm PUCCRT 1DP (disease control rating),Puccinia triticina; [5],A (> 80)
same,HV activity at 100 ppm PUCCRT 3DC (disease control rating),Puccinia triticina; [6],A (> 80)
COc1ccnc(C(=O)NC(C)C(=O)OC(C)C(Oc2cccc(C(F)(F)F)c2)C(C)C)c1OC(C)=O (stereo not drawn) [Cmpd 858],"SEPTTR 1DP disease control rating, LV activity at 125.1 g/H",Zymoseptoria tritici; [7],B (≤ 80)
same,"SEPTTR 3DC disease control rating, LV activity at 125.1 g/H",Zymoseptoria tritici; [8],A (> 80)
same,"PUCCRT 1DP disease control rating, LV activity at 125.1 g/H",Puccinia triticina; [7],A (> 80)
same,"PUCCRT 3DC disease control rating, LV activity at 125.1 g/H",Puccinia triticina; [8],A (> 80)
CC(C)C[C@@H](Oc1cc(F)ccc1F)[C@H](C)OC(=O)[C@H](C)NC(=O)c1ncccc1O [Cmpd 1036],HV activity at 100 ppm SEPTTR 1DP (disease control rating),Zymoseptoria tritici; [3],B (≤ 80)
same,HV activity at 100 ppm SEPTTR 3DC (disease control rating),Zymoseptoria tritici; [4],D
same,HV activity at 100 ppm PUCCRT 1DP (disease control rating),Puccinia triticina; [5],A (> 80)
same,HV activity at 100 ppm PUCCRT 3DC (disease control rating),Puccinia triticina; [6],B (≤ 80)

# Source: patent publication US20180000085A1, “USE OF PICOLINAMIDE COMPOUNDS WITH FUNGICIDAL ACTIVITY” (DOW AGROSCIENCES LLC, priority 2014, published 2018)
